Consider two compounds from patent US20020193404A1, “Use of bicyclic heterocycles for the treatment and prevention of arterial thrombotic disease” (priority 2001, published 2002).

Test [1] relates to human citrated plasma. In words: aPTT (activated partial thromboplastin time) prolongation. Conditions: concentration at which the aPTT time was double that of the control, 37° C. On the procedure:
The inhibiting effect of the two substances on blood clotting was measured by determining the prolongation of aPTT (activated partial thromboplastin time) as follows:
Plasma, from citrated human blood
PTT reagent, Boehringer Mannheim (524298)
Calcium solution (0.025 mol/L), Behring Werke, Marburg (ORH 056/57)
Diethyl barbiturate acetate buffer, Behring Werke, Marburg (ORWH 60/61)
The aPTT was determined using a Biomatic—B 10 coagulometer made by Messrs Desaga (Wiesloch). The test substance was placed in the test tubes prescribed by the manufacturer with 0.1 ml of human citrated plasma and 0.1 ml of PTT reagent. The preparations were incubated for three minutes at 37° C. The clotting reaction was started by the addition of 0.1 ml of calcium solution. The time taken for the plasma to clot was measured by the apparatus as the calcium solution was added. Analogous test preparations to which 0.1 ml of diethyl barbiturate acetate buffer had been added were used as controls. According to the definition of EC200, the substance concentration at which the aPTT time was double that of the control was determined using a dosage-activity curve.

The target in test [2] is T1, human fibrinogen receptor (glycoprotein IIb/IIIa) (Homo sapiens, UniProt P05106+P08514).
T1 construct: endogenous in cells; host or cells: human thrombocytes in platelet-rich plasma from donor blood
T1 sequence (P08514 32-887 limits assumed): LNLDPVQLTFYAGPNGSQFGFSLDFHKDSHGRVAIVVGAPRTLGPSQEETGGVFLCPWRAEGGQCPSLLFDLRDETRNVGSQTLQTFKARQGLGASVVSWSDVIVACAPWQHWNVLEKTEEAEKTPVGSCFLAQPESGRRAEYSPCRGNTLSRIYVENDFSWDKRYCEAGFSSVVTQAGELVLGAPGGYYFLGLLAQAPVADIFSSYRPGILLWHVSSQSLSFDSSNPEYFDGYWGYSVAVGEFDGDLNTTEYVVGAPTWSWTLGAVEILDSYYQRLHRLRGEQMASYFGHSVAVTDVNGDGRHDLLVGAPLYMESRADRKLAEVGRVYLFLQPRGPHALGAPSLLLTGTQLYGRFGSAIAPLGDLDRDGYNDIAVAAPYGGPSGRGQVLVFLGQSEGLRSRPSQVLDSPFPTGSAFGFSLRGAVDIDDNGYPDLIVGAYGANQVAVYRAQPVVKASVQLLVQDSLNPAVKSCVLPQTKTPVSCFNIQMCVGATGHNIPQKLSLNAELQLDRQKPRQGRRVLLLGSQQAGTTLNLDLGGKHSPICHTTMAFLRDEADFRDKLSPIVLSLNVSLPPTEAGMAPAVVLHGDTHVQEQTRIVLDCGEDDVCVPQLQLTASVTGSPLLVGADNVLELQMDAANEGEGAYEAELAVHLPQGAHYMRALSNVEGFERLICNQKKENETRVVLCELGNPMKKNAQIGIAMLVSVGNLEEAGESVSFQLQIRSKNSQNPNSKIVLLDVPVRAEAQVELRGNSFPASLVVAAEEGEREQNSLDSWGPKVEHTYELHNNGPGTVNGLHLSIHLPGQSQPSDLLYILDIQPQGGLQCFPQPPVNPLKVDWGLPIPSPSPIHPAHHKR
T1 sequence (P08514 891-1039 partner limits assumed): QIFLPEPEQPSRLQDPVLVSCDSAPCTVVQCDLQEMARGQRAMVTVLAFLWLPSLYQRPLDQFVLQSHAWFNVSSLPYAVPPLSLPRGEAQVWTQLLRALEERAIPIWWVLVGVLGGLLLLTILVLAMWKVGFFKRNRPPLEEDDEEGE
T1 sequence (P05106 27-788): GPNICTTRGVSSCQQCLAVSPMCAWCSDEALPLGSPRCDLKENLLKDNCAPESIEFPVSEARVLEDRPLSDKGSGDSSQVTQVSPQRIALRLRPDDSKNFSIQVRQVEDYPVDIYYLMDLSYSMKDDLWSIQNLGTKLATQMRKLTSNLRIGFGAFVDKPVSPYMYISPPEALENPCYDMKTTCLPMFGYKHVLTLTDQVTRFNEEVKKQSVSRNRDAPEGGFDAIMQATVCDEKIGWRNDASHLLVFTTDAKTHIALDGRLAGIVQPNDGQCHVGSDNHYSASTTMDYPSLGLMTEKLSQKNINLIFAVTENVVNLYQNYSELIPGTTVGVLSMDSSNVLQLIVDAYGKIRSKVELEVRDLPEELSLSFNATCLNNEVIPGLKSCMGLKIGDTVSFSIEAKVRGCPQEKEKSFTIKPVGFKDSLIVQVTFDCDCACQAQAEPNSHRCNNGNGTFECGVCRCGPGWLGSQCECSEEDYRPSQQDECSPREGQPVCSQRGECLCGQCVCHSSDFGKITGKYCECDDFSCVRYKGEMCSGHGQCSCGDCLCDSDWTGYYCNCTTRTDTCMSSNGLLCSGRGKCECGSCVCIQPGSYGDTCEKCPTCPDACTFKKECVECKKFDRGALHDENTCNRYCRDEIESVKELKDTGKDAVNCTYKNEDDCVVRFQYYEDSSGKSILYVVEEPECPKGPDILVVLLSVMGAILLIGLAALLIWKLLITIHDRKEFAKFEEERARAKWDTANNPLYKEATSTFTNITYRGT
In words: Inhibition of binding of 3H-BIBU 52 to human thrombocytes. Conditions: 3H-BIBU 52 5 nM, human thrombocytes in plasma, ambient temperature, 20 minutes. On the procedure: The inhibiting effect on the human fibrinogen receptor (glycoprotein IIb/IIIa) was investigated as follows:
Inhibition of Binding of ^3H-BIBU 52 to Human Thrombocytes:
A suspension of human thrombocytes was incubated with ^3H-BIBU 52 [=(3S,5S)-5-[(4′-amidino-4-biphenylyl)oxymethyl]-3-[(carboxy)methyl]-2-pyrrolidinone[3-^3H-4-biphenylyl]], which replaces the ligand ^125I-fibrinogen known from the literature (cf. DE-A-4 214 245), and various concentrations of the substance being tested. The free and bound ligands were separated by centrifugation and quantitatively determined by scintillation counting. The inhibition of the ^3H-BIBU 52 binding by the test substance was determined from the measurements obtained. To do this, donor blood was taken from an anticubital vein and anticoagulated with trisodium citrate (final concentration: 13 mM). The blood was centrifuged for ten minutes at 170× g and the supernatant platelet-rich plasma (PRP) was removed. The remaining blood was sharply centrifuged once more to obtain plasma. The PRP was diluted 1:10 with autologous plasma. […] 100 μl thereof were assayed in order to quantify the free ligand. […] The residual plasma still remaining in the pellet was determined from the ^14C content while the bound ligand was determined from the ^3H measurement. […]

One may read the IC50 as the point on the concentration scale where inhibition reaches its midpoint. The low end stands for greater potency in that assay, the high end for weaker potency in that assay. Turning to `Cn1c(COc2ccc(C(=N)N)cc2)nc2cc(N(CC(=O)O)S(=O)(=O)c3cccc4cccnc34)ccc21` [A, 1-methyl-2-[(4-amidinophenyl)-oxymethyl]-5-[N-(hydroxycarbonylmethyl)-quinoline-8-sulphonylamino]-benzimidazole], the “aPTT (EC200)” value in test [1] was 0.013 µmol/L. In addition, the half-inhibitory concentration (IC50) in test [2] was determined as 6 nM.

In the case of `Cn1c(CNc2ccc(C(=N)N)cc2)nc2cc(N(CC(=O)O)S(=O)(=O)c3cccc4cccnc34)ccc21` [B, 1-methyl-2-[N-(4-amidinophenyl)-aminomethyl]-5-[N-(hydroxycarbonylmethyl)-quinoline-8-sulphonylamino]-benzimidazole], the “aPTT (EC200)” value in test [1] turned out to be 0.026 µmol/L. This compound also gave an IC50 in test [2] of 49 nM.
